Test results reported in patent US10927075B2, “Compositions and methods relating to the treatment of cancer, autoimmune disease, and neurodegenerative disease” (THE JACKSON LABORATORY, priority 2014, dated 2021).

Legend:
[1] = tested on: AID-expressing mouse B-lymphocytes
[2] = tested on: primary splenic B-cells from WT (AID-expressing) mice; settings: Ishida et al., 2009; Lamont et al., 2013; cited from earlier work
[3] = tested on: Primary mouse B cells (WT); experiment: Micronuclei assay; type: cell-based; settings: all genotypes tested (WT, AID−/−, and p53−/−), 5 μg/mL, 3 d
MEC-1 cells = experiment: Micronuclei assay; type: cell-based, human; settings: cyclophosphamide treatment
[4] = tested on: Primary AID-expressing B-cells; experiment: Cell survival analysis; type: cell-based; settings: 100 nM versus vehicle (DMSO)
Protocol: FIG. 27 depicts a graph of cell survival analysis of primary AID-expressing B-cells treated with C-1523-1AD4 (100 nM) versus vehicle (DMSO).
Primary AID-expressing B-cells were sensitive to C-1523-1AD4 (FIG. 27).

[5] = Pharmacokinetics after single intravenous injection or oral gavage; type: in vivo, Sprague Dawley rats
Protocol: C-1523-1A was formulated in PBS with 5% DMSO and given via single intravenous injection (1 milligram per kilogram) or by oral gavage to Sprague Dawley rats (2 milligrams per kilogram). Plasma concentrations were measure by mass spectrometry at t=15 min, t=30 min, t=1 hr, t=2 hr, t=4 hr, and t=8 hr for the intravenous cohort and at t=1 hr, t-2 hr, t-3 hr, t-4 hr, t-5 hr, t-6 hr. […] Oral availability is 2-3% (FIG. 3).

[6] = Plasma concentration after administration of 2, 10, or 20 milligrams per kilogram; type: in vivo, Sprague Dawley rats; settings: Sprague Dawley, rat, 20 mg/kg dosing
Protocol: Pharmacokinetic measurements of DIDS, C-1523, and C-1523-1a following oral and intravenous administration to Sprague Dawly rats were made (FIGS. 4-6) and the plasma concentration of C-1523-1a at t=15 min, t=30 min, t=1 hr, t=2 hr, t=8 hr, and t=24 hr following administration of 2, 10, or 20 milligrams per kilogram to Sprague Dawley rats was determined (FIG. 7).
(§1) The effects of C-1523 have been tested in vitro in cultured cancer cells and in vivo with human cell samples. Preclinical pharmacokinetic analyses were conducted to determine the fate of the compound as it is administered.

[7] = tested on: Primary splenic B-cells from AID-expressing mice; experiment: Cell viability of primary splenic B-cells, AID-expressing versus AID-negative mice; type: cell-based; settings: compared to primary splenic B-cells in AID-negative mice
Source text: Primary splenic B-cells from AID-expressing mice were exposed to C-1523-1a and the BTK inhibitor ibrutinib and cell viability was compared to primary splenic B-cells in AID-negative mice (FIG. 9).

primary B-cells (AID+) = experiment: Dose response in primary B-cells (AID+); type: cell-based; settings: FIG. 10
Protocol: Dose responses for C-1523 (blue) and C-1523-1a (red) in primary B-cells (AID+) was determined (FIG. 10).

[8] = tested on: non-Hodgkin's lymphoma model; experiment: Non-Hodgkin's lymphoma model; settings: in vivo
Protocol: as §1

Q: What does the source list for `O=S(=O)(O)c1cc(N=C=S)ccc1C=Cc1ccc(N=C=S)cc1S(=O)(=O)O` [DIDS, 4,4′-diisothiocyanatostilbene-2,2′-disulfonic acid, reference compound]?
A: concentration eliciting AID-specific cytotoxicity [1]: 150 µM; cell death [2]: induces cell death in primary B-lymphocytes

Q: Which micronuclei [3] does the source give for `O=P1(N(CCCl)CCCl)NCCCO1` (stereo not drawn) [cyclophosphamide, reference compound] here?
A: approximately 9%

Q: What about the “micronuclei relative to primary cells” value (MEC-1 cells) of the same molecule?
A: approximately half as much micronuclei as primary cells

Q: For “disodium (E)-((5- acetamido-2-(2-(N- isobutyrylsulfamoyl)-4- (3-isopropylthioureido) styryl)phenyl)sulfonyl) (isobutyryl)amide [C-1523-1AD4]”, which “sensitivity (cell survival)” value [4] is on record?
A: sensitive

Q: What does the source list for `CC(=O)Nc1ccc(/C=C/c2ccc(NC(=S)NC(C)C)cc2S(N)(=O)=O)c(S(N)(=O)=O)c1` [C-1523-1a, (E)-N-(4-(4-(3-isopropylthioureido)-2-sulfamoylstyryl)-3-sulfamoylphenyl)acetamide]?
A: AUC ([5]; Sprague Dawley, rat, plasma, single intravenous injection 1 milligram per kilogram): 971 ng·h/mL; half-life ([5]; Sprague Dawley, rat, plasma, single intravenous injection 1 milligram per kilogram, PBS with 5% DMSO): 1.5 h; Vd ([5]; Sprague Dawley, rat, plasma, single intravenous injection 1 milligram per kilogram, read-out: Vss): 0.29 L/kg; Oral availability ([5]; oral gavage 2 milligrams per kilogram): 2-3%; half-life [6]: ~6 h; potency and selectivity for AID+ cells (cell viability) [7]: surprisingly potent and selective for AID+ cells; concentration below which response is consistent (primary B-cells (AID+)): below 10 nM; tumors [8]: successfully reduced tumors; acute toxicity (in vivo): almost no acute toxicity; tolerance to prolonged drug exposure (single and multiple dose): excellent tolerance
